From US20240082342A1, “PEPTIDE THERAPEUTICS FOR INCREASING LUNG CELL VIABILITY” (BOARD OF REGENTS, THE UNIVERSITY OF TEXAS SYSTEM, priority 2018, published 2024)
“Also recorded” adds a separate entry of the source.

Columns and labels:
[1] = mice; cited from earlier work
[2] = system: A2Cs of WT mice exposed to tobacco smoke; assay: Chronic passive tobacco smoke (20 weeks) lung injury in WT mice, A2C telomere analyses; type: in vivo, mouse; settings: 20 weeks smoke
Protocol: Relative telomere length was also analyzed by qPCR analysis of the genomic DNA as described by Callicott R J et al., (Comp Med 2006; 56:17-22) and Cawthon RM (Nucleic Acids Res 2002; 30:e47-e47). The […] gene was served as the control.
To test the effect of chronic TS exposure induced lung injury, these mice were exposed to passive TS from 40 research cigarettes over a 4 h period 5 days/week for 20 weeks (˜90 mg/m3 total solid particulates) using a mechanical smoking chamber (Teague Enterprises, Davis, CA) as described earlier. (Bhandary et al, 2015). Control mice were kept in ambient air. After sixteen weeks of daily passive TS exposure, mice with TS exposure injury were treated with CSP7 at a dosage of 1.5 mg/kg body weight daily 5 days/week for the next four weeks. These mice were continued with daily exposure of 4 h of TS during CSP7 treatment. At the end of the experiment (after 20 weeks of TS exposure), the mice were euthanized, and lungs were utilized for further analyses. To expand the local delivery options of CSP7 to directly treat the damaged lung by air-jet milling for dry powder inhalation (DPI). Mice exposed to TSE were treated with CSP7 using a rotating brush generator for 15 min daily for 7 days. Fourteen days later, […] were subjected to daily inhalation of micronized CSP7 (0.05 mg/kg/d) DP through air-jet-milling for seven consecutive days using a rotating brush exposure system. The rotating brush exposure system gave a consistent minimal chamber concentration of 0.1 mg/L. In order to match dosing of DP inhalation, animal exposure times were adjusted to approximately 15 minutes and an estimated dose of 0.05 mg/kg/d or 1.00 microgram/lung was administered. […]
Measurement of terminal restriction fragment (telomeric) length. For the determination of telomeric length, the TeloTTAGGG Telomere Length Assay Kit (Roche Diagnostics GmbH) was used. Briefly, genomic DNA was isolated and digested with Hinf1/Rsa. The digested DNA fragments were then separated by electrophoresis on agarose gel followed by Southern blot transfer. The membrane was then hybridized with a telomere specific digoxigenin (DIG)-labelled probe, incubated with anti-DIG alkaline phosphatase, and documented with chemiluminescence detection in gel-doc unit (Bio-Rad Laboratories). Telomeric length was identified by comparing with the pre-labelled molecular weight marker. The relative telomere length was calculated according to the protocol provided. In addition, relative telomere length was analyzed by qPCR analysis of the genomic DNA. (Cawthon, Nucleic Acids Res 2002, 30:e47-e47; Alder et al, Proc Natl Acad Sci USA 2015, 112:5099-5104.) The 36B4 gene was served as the control.

[3] = system: A2Cs of uPA^−/− mice; assay: Tobacco smoke or repeated bleomycin exposure of uPA-/- mice; type: in vivo, mouse
Protocol: To analyze the effect of cigarette smoke, mice were exposed to passive smoke from 40 research cigarettes over a 2-hour period once (2 h) or twice (4 h) daily for 5 days/week for 20 weeks (˜90 mg/m^3 total solid particulates) using a mechanical smoking chamber (Teague Enterprises, Davis, CA). Control mice were exposed to ambient air. At the 18th week, peptide treatment at a dosage of 30 μg/20 g body weight was initiated and continued on a daily basis for the next 14 days. At the end of the experiment, the mice were euthanized and used for the experiments.
To analyze the effect of BLM, mice were exposed to BLM (40 μg/20 g body weight) once per two week for 16 weeks. Control mice were exposed to normal saline. At 14th week the peptide treatment at a dosage of 30 μg/20 g body weight was initiated and continued on a daily basis for the next 14 days. At the end of the experiment, the mice were euthanized and used for the experiments.
(§1) To test the effect of chronic TS exposure induced lung injury, these mice were exposed to passive TS from 40 research cigarettes over a 4 h period 5 days/week for 20 weeks (˜90 mg/m3 total solid particulates) using a mechanical smoking chamber (Teague Enterprises, Davis, CA) as described earlier. (Bhandary et al, 2015). Control mice were kept in ambient air. After sixteen weeks of daily passive TS exposure, mice with TS exposure injury were treated with CSP7 at a dosage of 1.5 mg/kg body weight daily 5 days/week for the next four weeks. These mice were continued with daily exposure of 4 h of TS during CSP7 treatment. At the end of the experiment (after 20 weeks of TS exposure), the mice were euthanized, and lungs were utilized for further analyses. To expand the local delivery options of CSP7 to directly treat the damaged lung by air-jet milling for dry powder inhalation (DPI). Mice exposed to TSE were treated with CSP7 using a rotating brush generator for 15 min daily for 7 days. Fourteen days later, BLM mice were subjected to daily inhalation of micronized CSP7 (0.05 mg/kg/d) DP through air-jet-milling for seven consecutive days using a rotating brush exposure system. The rotating brush exposure system gave a consistent minimal chamber concentration of 0.1 mg/L. In order to match dosing of DP inhalation, animal exposure times were adjusted to approximately 15 minutes and an estimated dose of 0.05 mg/kg/d or 1.00 microgram/lung was administered.
To evaluate the effect of CSP7 against chronic BLM-induced PF, the mice were exposed to BLM (40 μg/20 g body weight) once every two weeks for 16 weeks as described elsewhere. (Tiwari et al, 2016). Control mice were exposed to normal saline. Fourteen weeks later the CSP7 at a dosage of 1.5 mg/kg body weight was administered by IP injection and continued daily basis for the next two weeks as described elsewhere. (Tiwari et al, 2016; Shetty et al, 2008b). At the end of the experiment, the mice were euthanized and lung tissues and isolated A2Cs from the extracted lung tissues were used for further analysis.

[4] = system: A2Cs of IL-17A^−/− mice; assay: Tobacco smoke exposure of IL-17A-/- mice; type: in vivo, mouse; settings: 20 weeks TS; for IHC Trf1 or Trf2 antigen staining: IL-17A-deficient mice
Protocol: Mouse models and CSP7 treatment. All experiments involving mice were performed according to the approved protocols under the guidelines of Institutional Animal Care and Use Committee. Wild type (WT), and PAI-1^−/− and uPA^−/− mice of C57BL/6 background purchased from Jackson Laboratory (Bar Harbor, ME) were used for the experiments. IL-17A^−/− mice were obtained from University of Tokyo, Japan.
as §1

DGIWKASFTTFTVTKYWFYR (listed as Homo sapiens) [CSP, 20 residue caveolin-1 scaffolding domain peptide]
tolerability [1]: well-tolerated

FTTFTVT (listed as Homo sapiens) [CSP7, heptapeptide fragment of the caveolin-1 scaffolding domain peptide CSP]
IHC of lung sections for TRF2, p53, PAI-1, TRF1 [2]: restoration of TRF2 expression with reduction in p53 and PAI-1 expression | SIAH-1 expression in A2Cs [2]: Downregulation of SIAH-1 was significantly more; also recorded: markedly downregulated | TRF2 and TERT expression in A2Cs [2]: restoration of TRF2 and TERT expression | p53, cleaved caspase-3 and β-galactosidase expression in A2Cs (Western blot) [2]: significant decrease; also recorded: markedly suppressed | TERT enzyme activity (TRAPeze assay) ([2]; vs CP group): significantly higher | relative telomere length of A2Cs (qPCR), telomere shortening ([2]; vs control peptide CP): significant resistance in telomere shortening | p53, ACp53, S15p53, apoptosis, senescence, PAI-1, SIAH1/2, TRF1, TRF2, PNUTS, TERT (Western blot) ([3]; uPA-/- mice, 8×BLM PF): minimal effect | telomerase enzyme activity (trapeze) ([3]; uPA-/- mice, 8×BLM PF): failed to restore | telomere length (qPCR) ([3]; uPA-/- mice, 8×BLM PF): failed to restore telomere length | telomere shortening (qPCR) ([3]; uPA-/- mice, 20 weeks TS): failed to respond to CSP7 treatment | telomere shortening ([3]; uPA-/- mice, 20 weeks smoke or repeated BLM, vs CP): did not show significant difference in telomere shortening | IHC of lung sections for TRF1 ([3]; uPA-/- mice, TS): minimal inhibition | TRF1, TRF2 and TERT expression in A2Cs ([3]; uPA-/- mice, TS): no significant change | p53 modification/induction, active caspase-3, β-galactosidase (Western blot) ([3]; uPA-/- mice, TS): failed to inhibit post-translational modification or induction of p53, active caspase-3 or β-galactosidase | telomerase activity ([3]; uPA-/- mice, TS): inability of CSP7 to reverse telomere shortening or improve telomerase activity | activation of p53, caspase-3, β-galactosidase (Western blot) ([3]; uPA-/- mice, smoke or BLM): failed to inhibit activation of p53, caspase-3 as well as β-galactosidase | telomerase enzyme activity (trapeze) ([3]; uPA-/- mice, smoke or BLM): did not restore the telomerase enzyme activity | TRF1, TRF2 and TERT expression ([3]; uPA-/- mice, smoke or BLM, CSP7 vs CP groups): no significant change | p53-induced PAI-1 expression or telomere dysfunction ([3]; uPA-deficient mice, TS- and 8×BLM-induced lung injury): failed to suppress p53-induced PAI-1 expression or telomere dysfunction | tolerability [1]: well-tolerated | baseline telomerase activity ([4]; IL-17A-/- mice): limited effects on baseline telomerase activity | telomere shortening in A2Cs ([4]; IL-17A-/- mice): minimal effect | IHC Trf1 or Trf2 antigen staining [4]: little change in Trf1 or Trf2 antigen staining

WGIDKAFFTTSTVTYKWFRY [CP, scrambled control peptide with the same amino acid composition as CSP, reference compound]
SIAH-1 expression in A2Cs [2]: still showed elevated p53 and SIAH-1 | TRF1, TRF2 and TERT expression in A2Cs ([3]; uPA-/- mice, TS): no significant change | telomere shortening in A2Cs ([4]; IL-17A-/- mice): minimal effect | IHC Trf1 or Trf2 antigen staining [4]: little change in Trf1 or Trf2 antigen staining
